≈ marks a conversion by molar mass, not a printed value. Where two headings read alike, the source gives them in different places.
Legend:
E. coli GC 2231 = experiment: MIC, broth microdilution; conditions: Escherichia coli
E. coli GC 2232 = experiment: MIC, broth microdilution; conditions: Escherichia coli
E. coli GC 2234 = experiment: MIC, broth microdilution; conditions: Escherichia coli
Description: Antimicrobial susceptibility testing. The in vitro activities of the antibiotics are determined by the broth microdilution method as recommended by the National Committee for Clinical Laboratory Standards (NCCLS) (1). Mueller-Hinton II broth (MHBII)(BBL Cockeysville, Md.) is the medium employed in the testing procedures. Microtiter plates containing serial dilutions of each antimicrobial agent are inoculated with each organism to yield the appropriate density (10^5 CFU/ml) in a 100 μl final volume. The plates are incubated for 18-22 hours at 35° C. in ambient air.
Representative compounds were first incubated in mouse serum for an hour prior to the in vitro testing against a panel of selected gram-positive and gram-negative bacteria strains. All compounds were also pre-incubated in water for an hour prior to testing as control.

E. coli GC 2272 = experiment: MIC, broth microdilution; conditions: Escherichia coli
E. coli GC 4559 = experiment: MIC, broth microdilution; conditions: Escherichia coli
E. coli GC 4560 = experiment: MIC, broth microdilution; conditions: Escherichia coli
E. coli GC 6465 = experiment: MIC, broth microdilution; conditions: Escherichia coli
E. coli GC 2203 = experiment: MIC, broth microdilution; conditions: Escherichia coli
P. aeruginosa GC 2214 = experiment: MIC, broth microdilution; conditions: Pseudomonas aeruginosa
S. aureus GC 1131 = experiment: MIC, broth microdilution; conditions: Staphylococcus aureus
S. aureus GC 6466 = experiment: MIC, broth microdilution; conditions: Staphylococcus aureus
S. aureus GC 6467 = experiment: MIC, broth microdilution; conditions: Staphylococcus aureus
S. aureus GC 4536 = experiment: MIC, broth microdilution; conditions: Staphylococcus aureus
S. aureus GC 2216 = experiment: MIC, broth microdilution; conditions: Staphylococcus aureus
S. epidermidis GC 4935 = experiment: MIC, broth microdilution; conditions: Staphylococcus epidermidis
E. faecalis GC 2267 = experiment: MIC, broth microdilution; conditions: Enterococcus faecalis
E. faecalis GC 2242 = experiment: MIC, broth microdilution; conditions: Enterococcus faecalis
S. pneumoniae* GC 4465 = experiment: MIC, broth microdilution; conditions: Streptococcus pneumoniae
S. pneumoniae+ GC 4465 = experiment: MIC, broth microdilution; conditions: Streptococcus pneumoniae
Staph. aureus Smith = experiment: In vivo activity (oral, iv; ED50) against Staph. aureus Smith in mice
Description: Representative examples of compounds of Formula I were tested for the oral efficacy using S. aureus Smith in mice.

[1] = read-out: MINIMAL INHIBITORY CONCENTRATION MIC, pre-incubated in Human Serum
[2] = read-out: MINIMAL INHIBITORY CONCENTRATION MIC, pre-incubated in Mouse Serum
[3] = read-out: MINIMAL INHIBITORY CONCENTRATION MIC, pre-incubated in Water

CN(C)c1cc(NC(=O)CN(C(=O)OCOC(=O)C2CCCC2)C(C)(C)C)c(O)c2c1C[C@H]1C[C@H]3[C@H](N(C)C)C(O)=C(C(N)=O)C(=O)[C@@]3(O)C(O)=C1C2=O [Example 46, ({[(2-{[(5aR,6aS,7S,10aS)-9-(aminocarbonyl)-4,7-bis(dimethylamino)-1,8,10a,11-tetrahydroxy-10,12-dioxo-5,5a,6,6a,7,10,10a,12-octahydrotetracen-2-yl]amino}-2-oxoethyl)(tert-butyl)amino]carbonyl}oxy)methyl cyclopentanecarboxylate]
MIC (E. coli GC 2231; GC2231, read-out: MINIMAL INHIBITORY CONCENTRATION MIC, pre-incubated in Human Serum): 4 µg/mL (≈ 5.29 µM) | MIC (E. coli GC 2231; GC2231, read-out: MINIMAL INHIBITORY CONCENTRATION MIC, pre-incubated in Mouse Serum): 0.5 µg/mL (≈ 0.662 µM) | MIC (E. coli GC 2231; GC2231, read-out: MINIMAL INHIBITORY CONCENTRATION MIC, pre-incubated in Water): 64 µg/mL (≈ 84.7 µM) | MIC (E. coli GC 2232; GC2232, read-out: MINIMAL INHIBITORY CONCENTRATION MIC, pre-incubated in Human Serum): 4 µg/mL (≈ 5.29 µM) | MIC (E. coli GC 2232; GC2232, read-out: MINIMAL INHIBITORY CONCENTRATION MIC, pre-incubated in Mouse Serum): 0.5 µg/mL (≈ 0.662 µM) | MIC (E. coli GC 2232; GC2232, read-out: MINIMAL INHIBITORY CONCENTRATION MIC, pre-incubated in Water): 64 µg/mL (≈ 84.7 µM) | MIC (E. coli GC 2234; GC2234, read-out: MINIMAL INHIBITORY CONCENTRATION MIC, pre-incubated in Human Serum): 4 µg/mL (≈ 5.29 µM) | MIC (E. coli GC 2234; GC2234, read-out: MINIMAL INHIBITORY CONCENTRATION MIC, pre-incubated in Mouse Serum): 0.5 µg/mL (≈ 0.662 µM) | MIC (E. coli GC 2234; GC2234, read-out: MINIMAL INHIBITORY CONCENTRATION MIC, pre-incubated in Water): 64 µg/mL (≈ 84.7 µM) | MIC (E. coli GC 2272; GC2272, read-out: MINIMAL INHIBITORY CONCENTRATION MIC, pre-incubated in Human Serum): 4 µg/mL (≈ 5.29 µM) | MIC (E. coli GC 2272; GC2272, read-out: MINIMAL INHIBITORY CONCENTRATION MIC, pre-incubated in Mouse Serum): 1 µg/mL (≈ 1.32 µM) | MIC (E. coli GC 2272; GC2272, read-out: MINIMAL INHIBITORY CONCENTRATION MIC, pre-incubated in Water): 64 µg/mL (≈ 84.7 µM) | MIC (E. coli GC 4559; GC4559, read-out: MINIMAL INHIBITORY CONCENTRATION MIC, pre-incubated in Human Serum): 8 µg/mL (≈ 10.6 µM) | MIC (E. coli GC 4559; GC4559, read-out: MINIMAL INHIBITORY CONCENTRATION MIC, pre-incubated in Mouse Serum): 1 µg/mL (≈ 1.32 µM) | MIC (E. coli GC 4559; GC4559, read-out: MINIMAL INHIBITORY CONCENTRATION MIC, pre-incubated in Water): > 64 µg/mL | MIC (E. coli GC 4560; GC4560, read-out: MINIMAL INHIBITORY CONCENTRATION MIC, pre-incubated in Human Serum): 1 µg/mL (≈ 1.32 µM) | MIC (E. coli GC 4560; GC4560, read-out: MINIMAL INHIBITORY CONCENTRATION MIC, pre-incubated in Mouse Serum): 0.5 µg/mL (≈ 0.662 µM) | MIC (E. coli GC 4560; GC4560, read-out: MINIMAL INHIBITORY CONCENTRATION MIC, pre-incubated in Water): 4 µg/mL (≈ 5.29 µM) | MIC (E. coli GC 6465; GC6465, read-out: MINIMAL INHIBITORY CONCENTRATION MIC, pre-incubated in Human Serum): 16 µg/mL (≈ 21.2 µM) | MIC (E. coli GC 6465; GC6465, read-out: MINIMAL INHIBITORY CONCENTRATION MIC, pre-incubated in Mouse Serum): 2 µg/mL (≈ 2.65 µM) | MIC (E. coli GC 6465; GC6465, read-out: MINIMAL INHIBITORY CONCENTRATION MIC, pre-incubated in Water): > 64 µg/mL | MIC (E. coli GC 2203; GC2203, read-out: MINIMAL INHIBITORY CONCENTRATION MIC, pre-incubated in Human Serum): 8 µg/mL (≈ 10.6 µM) | MIC (E. coli GC 2203; GC2203, read-out: MINIMAL INHIBITORY CONCENTRATION MIC, pre-incubated in Mouse Serum): 0.5 µg/mL (≈ 0.662 µM) | MIC (E. coli GC 2203; GC2203, read-out: MINIMAL INHIBITORY CONCENTRATION MIC, pre-incubated in Water): > 64 µg/mL | MIC (P. aeruginosa GC 2214; GC2214, read-out: MINIMAL INHIBITORY CONCENTRATION MIC, pre-incubated in Human Serum): > 64 µg/mL | MIC (P. aeruginosa GC 2214; GC2214, read-out: MINIMAL INHIBITORY CONCENTRATION MIC, pre-incubated in Mouse Serum): 16 µg/mL (≈ 21.2 µM) | MIC (P. aeruginosa GC 2214; GC2214, read-out: MINIMAL INHIBITORY CONCENTRATION MIC, pre-incubated in Water): > 64 µg/mL | MIC (S. aureus GC 1131; GC1131, read-out: MINIMAL INHIBITORY CONCENTRATION MIC, pre-incubated in Human Serum): 0.5 µg/mL (≈ 0.662 µM) | MIC (S. aureus GC 1131; GC1131, read-out: MINIMAL INHIBITORY CONCENTRATION MIC, pre-incubated in Mouse Serum): 0.5 µg/mL (≈ 0.662 µM) | MIC (S. aureus GC 1131; GC1131, read-out: MINIMAL INHIBITORY CONCENTRATION MIC, pre-incubated in Water): 0.5 µg/mL (≈ 0.662 µM) | MIC (S. aureus GC 6466; GC6466, read-out: MINIMAL INHIBITORY CONCENTRATION MIC, pre-incubated in Human Serum): 0.25 µg/mL (≈ 0.331 µM) | MIC (S. aureus GC 6466; GC6466, read-out: MINIMAL INHIBITORY CONCENTRATION MIC, pre-incubated in Mouse Serum): 0.25 µg/mL (≈ 0.331 µM) | MIC (S. aureus GC 6466; GC6466, read-out: MINIMAL INHIBITORY CONCENTRATION MIC, pre-incubated in Water): 0.25 µg/mL (≈ 0.331 µM) | MIC (S. aureus GC 6467; GC6467, read-out: MINIMAL INHIBITORY CONCENTRATION MIC, pre-incubated in Human Serum): 0.5 µg/mL (≈ 0.662 µM) | MIC (S. aureus GC 6467; GC6467, read-out: MINIMAL INHIBITORY CONCENTRATION MIC, pre-incubated in Mouse Serum): 1 µg/mL (≈ 1.32 µM) | MIC (S. aureus GC 6467; GC6467, read-out: MINIMAL INHIBITORY CONCENTRATION MIC, pre-incubated in Water): 1 µg/mL (≈ 1.32 µM) | MIC (S. aureus GC 4536; GC4536, read-out: MINIMAL INHIBITORY CONCENTRATION MIC, pre-incubated in Human Serum): 0.5 µg/mL (≈ 0.662 µM) | MIC (S. aureus GC 4536; GC4536, read-out: MINIMAL INHIBITORY CONCENTRATION MIC, pre-incubated in Mouse Serum): 0.5 µg/mL (≈ 0.662 µM) | MIC (S. aureus GC 4536; GC4536, read-out: MINIMAL INHIBITORY CONCENTRATION MIC, pre-incubated in Water): 0.5 µg/mL (≈ 0.662 µM) | MIC (S. aureus GC 2216; GC2216, read-out: MINIMAL INHIBITORY CONCENTRATION MIC, pre-incubated in Human Serum): 0.5 µg/mL (≈ 0.662 µM) | MIC (S. aureus GC 2216; GC2216, read-out: MINIMAL INHIBITORY CONCENTRATION MIC, pre-incubated in Mouse Serum): 0.5 µg/mL (≈ 0.662 µM) | MIC (S. aureus GC 2216; GC2216, read-out: MINIMAL INHIBITORY CONCENTRATION MIC, pre-incubated in Water): 1 µg/mL (≈ 1.32 µM) | MIC (S. epidermidis GC 4935; GC4935, read-out: MINIMAL INHIBITORY CONCENTRATION MIC, pre-incubated in Human Serum): 1 µg/mL (≈ 1.32 µM) | MIC (S. epidermidis GC 4935; GC4935, read-out: MINIMAL INHIBITORY CONCENTRATION MIC, pre-incubated in Mouse Serum): 1 µg/mL (≈ 1.32 µM) | MIC (S. epidermidis GC 4935; GC4935, read-out: MINIMAL INHIBITORY CONCENTRATION MIC, pre-incubated in Water): 2 µg/mL (≈ 2.65 µM) | MIC (E. faecalis GC 2267; GC2267, read-out: MINIMAL INHIBITORY CONCENTRATION MIC, pre-incubated in Human Serum): 1 µg/mL (≈ 1.32 µM) | MIC (E. faecalis GC 2267; GC2267, read-out: MINIMAL INHIBITORY CONCENTRATION MIC, pre-incubated in Mouse Serum): 0.5 µg/mL (≈ 0.662 µM) | MIC (E. faecalis GC 2267; GC2267, read-out: MINIMAL INHIBITORY CONCENTRATION MIC, pre-incubated in Water): 2 µg/mL (≈ 2.65 µM) | MIC (E. faecalis GC 2242; GC2242, read-out: MINIMAL INHIBITORY CONCENTRATION MIC, pre-incubated in Human Serum): 1 µg/mL (≈ 1.32 µM) | MIC (E. faecalis GC 2242; GC2242, read-out: MINIMAL INHIBITORY CONCENTRATION MIC, pre-incubated in Mouse Serum): 0.5 µg/mL (≈ 0.662 µM) | MIC (E. faecalis GC 2242; GC2242, read-out: MINIMAL INHIBITORY CONCENTRATION MIC, pre-incubated in Water): 1 µg/mL (≈ 1.32 µM) | MIC (S. pneumoniae* GC 4465; [1]): 0.12 µg/mL (≈ 0.159 µM) | MIC (S. pneumoniae* GC 4465; [2]): 0.12 µg/mL (≈ 0.159 µM) | MIC (S. pneumoniae* GC 4465; [3]): 0.12 µg/mL (≈ 0.159 µM) | MIC (S. pneumoniae+ GC 4465; [1]): 1 µg/mL (≈ 1.32 µM) | MIC (S. pneumoniae+ GC 4465; [2]): 1 µg/mL (≈ 1.32 µM) | MIC (S. pneumoniae+ GC 4465; [3]): 1 µg/mL (≈ 1.32 µM) | ED50 (Staph. aureus Smith; Staphylococcus aureus, in Mus musculus, po, read-out: ED50 Staph Smith SOD): 8.4 mg/kg | ED50 (Staph. aureus Smith; iv, read-out: ED50 Staph Smith SIV): 0.83 mg/kg

Reference: US20070049564A1 (Wyeth, priority 2005, published 2007)
